Usually TGI stands for how far tumour growth fell short of that in controls.

The record followed here is PMC9034499, “RORγt agonist enhances anti-PD-1 therapy by promoting monocyte-derived dendritic cells through CXCL10 in cancers” (Journal of Experimental & Clinical Cancer Research : CR, 2022).

One data set concerns LLC tumors. The data set can be described thus: LLC syngeneic tumor model. The format is in vivo, C57BL/6 mice. As to the method: All experiments were approved by the IACUC and performed with strict adherence to a series of documents and standards of procedures (SOPs) relative to animal ethics and welfare. The mice were housed in cages with controlled temperature (25 ± 2 °C) and humidity (65 ± 5%) under a 12 h light/dark cycle. After a one-week adaptation period, six to eight-week-old female mice were injected s.c. with LLC (5 × 10^5), B16F10 (2 × 10^5), or MC38 (2 × 10^6) cells into the lower right flank. Approximately seven days after the subcutaneous injection of tumor cells, the mice were randomly divided into four groups. RORγt agonist 8-074, LYC-55716 (BioChemPartner, Shanghai, China) and anti-PD-1 (BioXCell, New Hampshire, USA) treatment commenced when the average tumor size reached 50 mm^3 for LLC and B16F10 and 150 mm^3 for MC38. The 5 × 10^5 LLC cells were transplanted subcutaneously into the right flank of the C57BL/6 mice seven days after being transplanted, and the mice were randomly divided into four groups. Anti-PD-1 was administrated one day after the RORγt agonist was treated (Clone: PMP1-14; 200 μg via intraperitoneal injection on day 1, 4, 7, 10, 13 after treatment with 8-074). For the CD8^+ T cell depletion, mice were injected intraperitoneally (i.p.) with 400 μg of anti-CD8α (YTS 169.4; BioXCell, New Hampshire, USA) one day before and dosed per week after the anti-PD-1 treatment. Mice with established tumors were treated using intraperitoneal injection of 8-074 (indicated dose), LYC-55716 (50 mg/kg) or DMSO (SIGMA, New Jersey, USA) every day. […] The tumor volume based on the caliper measurements was calculated using the modified ellipsoidal equation, where the tumor volume = 1/2 (length × width ^2) and the length was the longer dimension. […] TGI was calculated using the equation: [(Ct – C0) – (Tt – T0)] / (Ct – C0) × 100, where Ct = the mean tumor volume of the control group at the time (t); C0 = the mean tumor volume of the control group at t0; Tt = mean tumor volume of the treatment group at t; and T0 = mean tumor volume of the treatment group at t0.

Data set [1] concerns mutated RORγt protein at key binding sites. Put plainly: Biacore binding to mutated RORγt LBD protein. Also noted: species or system human. The source says: Human nuclear receptor RORγt (residues 263–509)-GGG-SRC1 (SRC1 sequence: EKHKILHRLLQDS, Sangon Biotech, Shanghai). RORγt LBD was cloned in pET28a. Key residue mutations of RORγt LBD (such as PHE388, LEU391, CYS393, LEU396, ILE397, ILE400, CYS320, ALA321, LEU324, MET358, and PHE388) with LYC-55716 were cloned in pET28a. Key residue mutations of RORγt LBD (MET365, ALA368, PHE401, ILE400, ILE397, LEU396, TRP317, CYS320, LEU324, ALA327, TYR330, VAL331, MET358, and VAL361) with 8-074 were cloned in pET28a. The proteins were expressed in E. coli strain DE3. Then, the transformed E. coli culture was grown at 37 °C with 30 μg/mL Kanamycin LB (Luria–Bertani). When the OD600 of LB medium reached 0.6, the temperature was changed to 16 °C, and isopropyl-β-D-thiogalactopyranoside (IPTG, Beyotime, Shanghai, China) was added at a final concentration of 0.4 mM to induce protein expression for 16 h. After 16 h, the pellet was collected after centrifugation at 4,000 rpm for 15 min at 4 °C. […]
The RORγt protein was immobilized on a CM5 chip (GE Health, Chicago, USA) using Biaocre 8 K. A sensogram was obtained using different serial concentrations of 8-074 (5000 nM, 2500 nM, 1250 nM, 625 nM, 312.5 nM, 156.25 nM, 78.125 nM, and 39.0625 nM). […] Data were analyzed using Biacore Evaluation Software.

The test system of a further data set is Th1 cells. Put plainly: Th1 specificity, IFN-γ by flow cytometry. To be noted: compared with vehicle alone. The format is cell-based, C57BL/6 wild-type mice. From the text:
To confirm the in vitro specificity of 8-074, splenocytes from C57BL/6 wild-type mice were activated by plate-bound anti-CD3 and anti-CD28 antibodies and polarized with anti-IL-4 and IL-12 to obtain Th1 cells. IFN-γ, a signature cytokine of Th1 cells, was not affected by LYC-55716 or 8-074 compared with vehicle alone (Fig. 2j, Fig. S2g).
On the technique in general: Flow cytometry measures light scatter and fluorescence of single cells or particles in a stream.

Take `CCS(=O)(=O)c1ccc(CC(=O)Nc2ccc(-c3ccc(CC(C)C)c(C#N)c3)c(C(F)(F)F)c2)cc1` [8-074]: in the data set with LLC tumors (LLC combination study Fig. 3e, anti-PD-1 10 mg/kg every three days i.p., 8-074 i.p. every day), the TGI was 59.3%. Also, in the data set with LLC tumors (LLC model, dose escalation), the “body weight of mice” value was “slight body weight loss”. Besides, the “Tumor growth inhibition (TGI)” value in the data set on LLC tumors (LLC, 50 mg/kg i.p. QD over two weeks, Fig. 3a) came to 55.6%. In addition, the “binding affinity with the mutated RORγt protein” value in data set [1] was “no binding affinity”. Also, the “IFN-γ, signature cytokine of Th1 cells” value with Th1 cells was “not affected”.
